From ChEMBL document CHEMBL1121645, “Pyrimidine acyclic nucleosides, 1-[(2-Hydroxyethoxy)methyl]pyrimidines as candidate antivirals” (J Med Chem, 1981)

Tests used:
[1] = tested on: Thymidine kinase (Human alphaherpesvirus 1); assay: Compound was evaluated for the inhibitory activity against HSV-1 encoded thymidine kinase at 300 uM; 45-56% inhibition
[2] = tested on: Thymidine kinase (Human alphaherpesvirus 1); assay: Compound was evaluated for the inhibitory activity against HSV-1 encoded thymidine kinase at 300 uM

SMILES: O=C(OCCOCn1ccc(=O)[nH]c1=O)c1ccccc1
- inhibition [1]: 45%

SMILES: O=c1[nH]c(=O)n(COCCO)cc1I
- inhibition [2]: 56%

SMILES: O=c1[nH]c(=O)n(COCCO)cc1C(F)(F)F
- inhibition [2]: 56%
